Assay results published in patent publication US20250066388A1, “1,3,4,7-TETRAHYDRO-2H-PYRROLO[3',2':5,6]PYRIDO[2,3-B][1,4]OXAZEPINE BCL-2 INHIBITORS” (AbbVie Inc., priority 2022, published 2025).
pEC50, pKi: −log10 of the molar value.

Key:
RS4;11 cells = assay: Cell viability assay (CellTiter-Glo) in RS4;11 cells; type: cell-based; details: 24 hours, 10% Human Serum
Protocol: (§1) The acute lymphoblastic leukemia (ALL) human cell line RS4;11 (ATCC, Manassas VA) was used as the primary human cell line to assess the cellular activity of compound of the present Examples in vitro and their efficacy in vivo. […] The acute lymphoblastic leukemia cell line Molt-4, which is derived from immature T-lymphoid cells (T-ALL), was used as a counter screen assay.
(§2) 3000 Cells (0.1×10^6/mL) were seeded in each well of 384-well plate and were treated for 24 hours in a humidified chamber with 5% CO2. Cell viability was determined by CellTiter-Glo as described by the manufacturer's instructions (Promega Corporation, Madison, WI, USA).

Molt-4 cells = assay: Cell viability counter screen (CellTiter-Glo) in Molt-4 cells; type: cell-based; details: 24 hours, 10% Human Serum
Protocol: as §1, §2

Bcl-xL protein = Bcl-xL protein (Homo sapiens (Human), UniProt Q07817); assay: TR-FRET binding assay, Bcl-xL; details: F-Bak peptide probe
Protocol: (§3) Determination of the utility of compounds having Formula (I) or Formula (II) as binders to and inhibitors of anti-apoptotic Bcl-2 proteins was performed using the Time Resolved-Fluorescence Resonance Energy Transfer (TR-FRET) Assay. Tb-anti-GST antibody was purchased from Invitrogen (Catalog No. PV4216).
A human Bcl-xL encoding sequence was cloned into a pET41A vector. The protein was expressed with E. coli. BL21(DE3)-T1R strain in OETB autoinduction medium at 30° C. for 25 hours. The cell pellets were resuspended in lysis buffer (50 mM Tris, 140 mM NaCl, 1 mM DTT, 10% Glycerol, 0.1% Triton X-100, pH 7.5) and lysed with Microfluidizer. The Bcl-xL protein in clarified cell-lysate was purified with GST affinity chromatography. The eluate was dialyzed in the storage buffer (1×PBS, 10% Glycerol, 2 mM DTT, 1 mM Sodium Azide, pH 7.4) and stored at −80° C.
(§4) […] of a protein (Bcl-2 or Bcl-xL)/probe/antibody mixture pre-equilibrated for one hour in assay buffer was added to each well at final concentrations listed in Table 6 below.
(§5) The samples were then mixed on a shaker for 1 minute and equilibrated for an additional 3 hours at room temperature. For each assay plate, a probe/antibody and protein/antibody/probe mixture were included as a negative and a positive control, respectively. Fluorescence was measured on the Envision (Perkin Elmer) using a 340/35 nm excitation filter and 520/525 (F-Bak) and 495/510 nm (Tb-labeled anti-GST antibody) emission filters. Inhibition constants (Ki) were determined using Wang's equation (Wang FEBS Lett. 1995, 360, 111-114). The TR-FRET assay can be performed in the presence of varying concentrations of human serum (HS) to determine apparent half maximal inhibitory concentration (IC50) after HS protein binding.
(§6) Inhibition constants were determined using Wang's equation (Wang FEBS Lett. 1995, 360:111-4).

Bcl-2 protein = Bcl-2 protein (Homo sapiens (Human), UniProt P10415); assay: TR-FRET binding assay, Bcl-2; details: F-Bak peptide probe, GST-Bcl-2
Protocol: as §3
A Bcl-2 human encoding sequence was cloned into a pET41A vector (Novagen). The protein was expressed with E. coli. BL21(DE3)-T1R strain in OETB autoinduction medium at 30° C. for 25 hours. The cell pellets were resuspended in lysis buffer (50 mM Tris, 140 mM NaCl, 1 mM DTT, 10% Glycerol, 2 mM MgCl2, pH 7.3) and lysed with Microfluidizer. The Bcl-2 protein in clarified cell-lysate was purified with affinity chromatography (GST and Ni-NTA). The eluate was loaded onto a Superdex 75 column and further purified with a Q Sepharose column. The protein was purified on a phenyl hydrophobic interaction column and dialyzed in the storage buffer (50 mM Tris, 50 mM NaCl, 2 mM DTT, pH 7.5) and stored at −80° C.
as §4, §5, §6

Chain of Bcl-xL protein (Q07817 other isoform, or with tags, fused parts or gaps): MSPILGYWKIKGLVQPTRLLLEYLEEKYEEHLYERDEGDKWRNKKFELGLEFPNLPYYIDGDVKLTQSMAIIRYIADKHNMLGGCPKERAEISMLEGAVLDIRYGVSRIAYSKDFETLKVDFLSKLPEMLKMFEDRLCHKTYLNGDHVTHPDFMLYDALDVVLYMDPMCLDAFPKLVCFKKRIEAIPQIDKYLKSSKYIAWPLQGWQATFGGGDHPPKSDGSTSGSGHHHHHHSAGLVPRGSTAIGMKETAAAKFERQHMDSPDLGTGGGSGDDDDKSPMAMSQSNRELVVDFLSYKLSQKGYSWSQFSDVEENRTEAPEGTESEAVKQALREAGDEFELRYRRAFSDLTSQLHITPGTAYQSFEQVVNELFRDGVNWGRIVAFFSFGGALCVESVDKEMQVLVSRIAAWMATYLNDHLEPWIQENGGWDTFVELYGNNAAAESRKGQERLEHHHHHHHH
Chain of Bcl-2 protein (P10415 other isoform, or with tags, fused parts or gaps): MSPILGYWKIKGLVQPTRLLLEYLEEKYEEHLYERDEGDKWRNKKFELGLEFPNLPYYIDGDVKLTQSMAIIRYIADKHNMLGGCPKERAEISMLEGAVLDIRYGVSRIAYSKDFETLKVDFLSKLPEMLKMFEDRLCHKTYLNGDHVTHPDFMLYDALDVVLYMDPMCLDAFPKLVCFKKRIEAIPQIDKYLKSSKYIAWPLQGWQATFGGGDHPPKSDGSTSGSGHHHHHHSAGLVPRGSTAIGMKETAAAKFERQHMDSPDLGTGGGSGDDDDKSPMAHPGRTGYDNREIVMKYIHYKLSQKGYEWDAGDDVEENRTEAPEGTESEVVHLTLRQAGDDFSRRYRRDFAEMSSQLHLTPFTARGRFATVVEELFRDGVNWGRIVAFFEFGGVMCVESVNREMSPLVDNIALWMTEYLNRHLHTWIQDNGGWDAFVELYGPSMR

| Structure (SMILES) | pEC50 (RS4;11 cells) | pEC50 (Molt-4 cells) | pKi (Bcl-xL protein) | pKi (Bcl-2 protein) |
| --- | --- | --- | --- | --- |
| CC1(C)CC(c2ccc(Cl)cc2)=C2CN3CCN(c4ccc(C(=O)NS(=O)(=O)c5ccc(NC[C@H]6COCCO6)c([N+](=O)[O-])c5)c(N5CCCOc6nc7[nH]ccc7cc65)c4)C[C@H]3COCCCO[C@@H]2C1 [Example 3, N-((4-((((S)-1,4-dioxan-2-yl)methyl)amino)-3-nitrophenyl)sulfonyl)-4-((4aS,10aR)-14-(4-chlorophenyl)-12,12-dimethyl-1,2,4a,5,8,9,10a,11,13,15-decahydro-7H,12H-benzo[f]pyrazino[2,1-c][1,8]dioxa[4]azacycloundecin-3(4H)-yl)-2-(3,4-dihydro-2H-pyrrolo[3′,2′:5,6]pyrido[2,3-b][1,4]oxazepin-1(7H)-yl)benzamide] | 8.87 | 5.85 |  |  |
| C[C@@H]1CC[C@H](CNc2ccc(S(=O)(=O)NC(=O)c3ccc(N4CCN5CC6=C(c7ccc(Cl)cc7)CC(C)(C)C[C@H]6OCCCOC[C@@H]5C4)cc3N3CCCOc4nc5[nH]ccc5cc43)cc2[N+](=O)[O-])OC1 [Example 21, 4-((4aS,10aR)-14-(4-chlorophenyl)-12,12-dimethyl-1,2,4a,5,8,9,10a,11,13,15-decahydro-7H,12H-benzo[f]pyrazino[2,1-c][1,8]dioxa[4]azacycloundecin-3(4H)-yl)-2-(3,4-dihydro-2H-pyrrolo[3′,2′:5,6]pyrido[2,3-b][1,4]oxazepin-1(7H)-yl)-N-((4-((((2R,5R)-5-methyltetrahydro-2H-pyran-2-yl)methyl)amino)-3-nitrophenyl)sulfonyl)benzamide] | 8.31 | 5.48 |  |  |
| CO[C@H]1CC[C@H](COc2ccc(S(=O)(=O)NC(=O)c3ccc(N4CCN5CC6=C(c7ccc(Cl)cc7)CC(C)(C)C[C@H]6OCCCOC[C@@H]5C4)cc3N3CCCOc4nc5[nH]ccc5cc43)cc2Cl)OC1 [Example 40, N-((3-chloro-4-(((2R,5S)-5-methoxytetrahydro-2H-pyran-2-yl)methoxy)phenyl)sulfonyl)-4-((4aS,10aR)-14-(4-chlorophenyl)-12,12-dimethyl-1,2,4a,5,8,9,10a,11,13,15-decahydro-7H,12H-benzo[f]pyrazino[2,1-c][1,8]dioxa[4]azacycloundecin-3(4H)-yl)-2-(3,4-dihydro-2H-pyrrolo[3′,2′:5,6]pyrido[2,3-b][1,4]oxazepin-1(7H)-yl)benzamide] |  | < 5.00 | 6.70 | 9.46 |
| CC1(C)CC(c2ccc(Cl)cc2)=C2CN3CCN(c4ccc(C(=O)NS(=O)(=O)c5ccc(OC[C@H]6CC[C@](C)(O)CC6)c([N+](=O)[O-])c5)c(N5CCCOc6nc7[nH]ccc7cc65)c4)C[C@H]3COCCCO[C@@H]2C1 [Example 44, 4-((4aS,10aR)-14-(4-chlorophenyl)-12,12-dimethyl-1,2,4a,5,8,9,10a,11,13,15-decahydro-7H,12H-benzo[f]pyrazino[2,1-c][1,8]dioxa[4]azacycloundecin-3(4H)-yl)-2-(3,4-dihydro-2H-pyrrolo[3′,2′:5,6]pyrido[2,3-b][1,4]oxazepin-1(7H)-yl)-N-((4-(((1r,4r)-4-hydroxy-4-methylcyclohexyl)methoxy)-3-nitrophenyl)sulfonyl)benzamide] | 8.36 | 5.64 |  |  |
| CC1(C)CC(c2ccc(Cl)cc2)=C2CN3CCN(c4ccc(C(=O)NS(=O)(=O)c5ccc(NCC6CCCCO6)c([N+](=O)[O-])c5)c(N5CCCOc6nc7[nH]ccc7cc65)c4)C[C@H]3COCCCO[C@@H]2C1 (stereo partly drawn) [Example 45, 4-((4aS,10aR)-14-(4-chlorophenyl)-12,12-dimethyl-1,2,4a,5,8,9,10a,11,13,15-decahydro-7H,12H-benzo[f]pyrazino[2,1-c][1,8]dioxa[4]azacycloundecin-3(4H)-yl)-2-(3,4-dihydro-2H-pyrrolo[3′,2′:5,6]pyrido[2,3-b][1,4]oxazepin-1(7H)-yl)-N-((3-nitro-4-(((tetrahydro-2H-pyran-2-yl)methyl)amino)phenyl)sulfonyl)benzamide] | 7.97 | < 5.00 |  |  |
